In patent publication US20110245218A1 (priority 2010, published 2011):

| melting point [°C] | SMILES |
| --- | --- |
| 150 to 152 | CN1C(=O)C(S)=C(SC(=N)N)C1=O [Compound 27, 4-{[amino(iminio)methyl]sulphanyl}-1-methyl-2,5-dioxo-2,5-dihydro-1H-pyrrole-3-thiolate] |
| 145 to 148 | CN1C(=O)C(S)=C(S)C1=O |
| 163 to 164 | CN1C(=O)C(SC(=N)N)=C(SC(=N)N)C1=O [Compound 1, [(1-methyl-2,5-dioxo-2,5-dihydro-1H-pyrrole-3,4-diyl)disulphanediyl]bis(aminomethaniminium) dichloride] |
